Several values for one entry are separate records, joined by “and”; a condition that tells them apart may be missing. Equal values may be shown once.
Assays:
[1] = tested on: Melanoderm tissue model MEL 300 A; test: Melanin content / skin lightening assay in MelanoDerm tissue model; type: cell-based, human; details: for Melanin concentration vs. water: Day 10, after 6 applications; for Melanin Concentration at Day 10 (Avg.): after 6 applications, 10 μL in DMI (kojic acid 25 μL, 1% in water)
Excerpt: (§1) This example illustrates cell viability properties and efficacy of skin lightening formulations according to the present invention. For purposes of these examples, DP2 and DP15 both refer to a bis-ascorbyl ester of a (10-carboxydecyl)-terminated dimethylsiloxane, but with the former having two degrees of polymerization, and the latter having an average of 15 degrees of polymerization (15+/−5). In particular, three formulations according to the present invention, water (a negative control), 1% kojic acid (Sigma, Wis.) in water (positive control), and 2.3% ascorbyl palmitate in DMI (dimethyl isosorbide from Uniqema Americas, representative of a currently commercially available skin-lightening compound), were assayed and compared for cell viability and skin lightening efficacy (see Table 4). The assays were carried out using Melanoderm tissue model MEL 300 A cell line (MelanoDerm™ tissue model available from MatTek, Ashland, Mass.). This melanoderm model consists of normal, human-derived epidermal keratinocytes and melanocytes that have been co-cultured to form a multilayer, highly differentiated model of human epidermis.
Table 6 (see FIG. 4(a)) sets forth the […] after 6 applications of each formulation as indicated. Melanin concentration (ug/ml) was lower (p<0.05) in the positive control (kojic acid) and in Ascorbyl palmitate, DP2, and DP2+ascorbic acid. Table 7 (see FIG. 4(b) also sets forth the melanocyte concentration on Day 10, after six applications of the test formulations. Melanin concentration (ug/ml) was higher (p<0.05) in DP2, with no difference from DP2+ascorbic acid or DPI 5. However, p value for DP15 had high variability and statistical difference was borderline (p=0.06)

[2] = tested on: Melanoderm tissue model MEL 300 A; test: Viability by MTT assay (MatTek MTT ET-50 protocol); type: cell-based, human; details: for MTT reading (individual readings): listed as DP2/DMI
Excerpt: as §1
Duplicate samples of each of the formulations in Table 4 were dosed and tested for 48 hours for cell viability by MTT assay (MatTek MTT ET-50 protocol). The volume of water and kojic acid used was 25 ul.

[3] = Dispersibility in carriers (caprylic/capric triglyceride, cyclopentasiloxane, deionized water); type: physicochemical
Experimental: a) Approximately 7.2 g of a sample of a material of the present invention comprising an undecyl ascorbate group on one end of the short chain dimethylsiloxane (Formula=Si(CH3)3-[Si(CH3)2]8—[CH2]10—COO-Ascorbate), with a calculated molecular weight of 1082) was weighed into a glass vial. Liponate CG (INCI name: caprylic/capric triglyceride) was added to the vial to bring the net weight to 20 g. The vial was warmed in a water bath set at 50° C. […] A sample of ascorbyl palmitate obtained from DSM was also tested for dispersibility in Liponate CG. Several concentrations were tested. The lowest concentration tested was made by weighing approximately 2.3 g of ascorbyl palmitate into a glass vial and then adding caprylic/capric triglyceride to bring the net weight to 20 g. […] The silicone was added to the vial to bring the net weight to 20 g. […] This mixture thickened upon cooling to room temperature. To determine if the mixture was a stable dispersion or an unstable suspension, the mixture was centrifuged in a bench top laboratory centrifuge at 3000 rpm for approximately 30 minutes. […] The amount of white material was small (much less than the amount of siloxane undecyl ascorbate that was used) and it was later determined that the white material was most likely unreacted ascorbic acid. A sample of ascorbyl palmitate obtained from DSM was tested for dispersibility in Dow Corning® 245 Fluid. Several concentrations were tested. The lowest concentration tested was made by weighing approximately 2.3 g of ascorbyl palmitate into a glass vial and then adding Dow Corning® 245 Fluid to bring the net weight to 20 g. […] Deionized water was added to bring the total net weight to 3.5 g. The vial was placed in a water bath set at 60° C. and the disiloxane material began to disperse after a few minutes. The vial was pulled out of the water bath periodically over the next 10-15 minutes. […] Upon cooling the vial was examined to determine if all of the test material had been dispersed. It was difficult to tell due to the hazy appearance of the sample. The experiment was repeated with approximately 0.17 of the disiloxane diluted to 3.5 g with deionized water. […] Ascorbyl palmitate obtained from DSM was tested for dispersibility in deionized water.

[4] = approximately 2.3 g brought to 20 g (lowest concentration), 50° C. to 90° C. for 20-30 minutes
[5] = first duplicate sample, 10 uL dose, 48 hours
[6] = second duplicate sample, 10 uL dose, 48 hours

In the case of O=c1cc(CO)occ1O [Kojic Acid, kojic acid], the “Melanin concentration vs. water” value ([1]; p<0.05) is reported as “lower” and the “Melanin Concentration at Day 10 (Avg.)” value [1] is reported as 25.20 µg/mL.

In the case of CCCCCCCCCCCCCCCC(=O)OC[C@H](O)[C@H]1OC(=O)C(O)=C1O [Ascorbyl Palmitate, Ascorbyl palmitate, reference compound], the “% Viability (total average)” value ([2]; human, 48 h, 2.3 %) is reported as 96.04%, the “Total average (MTT reading)” value ([2]; human, 48 h, 2.3 %) is reported as 1.4495 and the “Melanin concentration vs. water” value ([1]; p<0.05) is reported as “lower”. The “Melanin Concentration at Day 10 (Avg.)” value [1] was 34.14 µg/mL, the “dispersibility in Dow Corning 245 Fluid (cyclopentasiloxane)” value [3, 4] was “would not disperse” and the “dispersibility in Liponate CG (caprylic/capric triglyceride)” value [3, 4] was “would not disperse”. For the same molecule, the “dispersibility in deionized water” value ([3]; concentrations comparable to those tested for the disiloxane test material) was “not dispersible”.

For C[Si](C)(CCCCCCCCCCC(=O)OCC(O)C1OC(=O)C(O)=C1O)O[Si](C)(C)CCCCCCCCCCC(=O)OCC(O)C1OC(=O)C(O)=C1O (stereo not shown) [DP2, bis-ascorbyl ester of a (10-carboxydecyl)-terminated dimethylsiloxane], the cytotoxicity ([2]; 10 uL dose, in DMI) was “does not cause cytotoxicity”, the “Total average (MTT reading)” value ([2]; both duplicate samples, 10 uL dose, 48 hours) was 1.514 and the “% Viability (total average)” value ([2]; both duplicate samples, vs water, 10 uL dose, 48 hours) was 100.31%. For the same molecule, the “Average (MTT reading)” value [2, 5] was 1.417, the “MTT reading (individual readings)” value [2, 5] was 1.433 and 1.401 and the “% Viability” value ([2]; first duplicate sample, vs water, 10 uL dose, 48 hours) was 91.24%. For the same molecule, the cell viability ([2]; in DMI) was over 90%, the “Average (MTT reading)” value [2, 6] was 1.611 and the “MTT reading (individual readings)” value [2, 6] was 1.619 and 1.603. The “% Viability” value ([2]; second duplicate sample, vs water, 10 uL dose, 48 hours) was 109.93%, the “Melanin concentration vs. water” value ([1]; p<0.05) was “lower” and the “Melanin concentration vs. ascorbyl palmitate” value ([1]; Day 10, after six applications, p<0.05) was “higher”. For the same molecule, the “Melanin Concentration at Day 10 (Avg.)” value [1] was 44.40 µg/mL, the “dispersibility in deionized water” value ([3]; approximately 0.17 diluted to 3.5 g, warmed in water bath) was “thinner, less hazy dispersion” and the “dispersibility in deionized water” value ([3]; approximately 0.35 g brought to 3.5 g, water bath 60° C.) was “thick hazy dispersion”. The “stability of dispersions in deionized water” value ([3]; both dispersions, no sign of separation or settling) was “stable for several weeks”.

Source: patent US7871987B2, “Ester derivatives of ascorbic and 2-keto acid saccharides” (Dow Corning Corporation, priority 2004, dated 2011)
